Experimental data from patent publication US20130218474A1, “Benchmarks for Normal Cell Identification” (priority 2012, published 2013).
“And” between values parts separate entries of the source, which are not always exact repeats. Equal values may be shown once. “Also recorded” adds a separate entry of the source. Read-outs that look alike come from different tables or passages of the source.

How the values were obtained:
[1] = cited from earlier work
xenograft model = conditions: low doses; cited from earlier work
[2] = test system: Ba/F3-wt (+IL-3, proliferation) JAK2 wt; conditions: read-out: Reported activity Ba/F3-wt (+IL-3, proliferation) JAK2 wt; cited from earlier work
[3] = test system: pAKT (same cells, same stim); experiment: pAKT inhibition in PBMCs (monos), GM-CSF; format: cell-based
[4] = test system: AML patient sample #1910-017 cells; experiment: SCNP arm #1: modulated signaling in AML patient cells with and without kinase inhibitors; format: cell-based, human; conditions: subject #1910-017
Experimental: (§1) Peripheral blood or bone marrow samples from AML patient were collected (n=9), which had been previously ficoll separated and cryopreserved. Patient characteristics are shown Table 7. One cryovial per patient was used. Samples were thawed and centrifuged over ficoll to remove dead cells and debris.
Arm #1 assessed basal and modulated signaling in the JAK/STAT, PI3K/mTor, and MEK/ERK pathways in the presence and absence of specific kinase inhibitors. Kinase inhibitors were added […]before the addition of the signaling stimulus. Signaling was induced by individual addition of stem cell factor, Flt3 ligand, G-CSF, IL-3, or thrombopoietin (TPO) for a short period of time (5-15 min). Cells were then fixed, permeabilized, and stained with a cocktail of cell surface and phospho-specific antibodies to measure signaling in multiple cell types. Signaling data is calculated in each cell type using a fold-change metric comparing each condition to its basal state: example: (stimulated^+/−inhibitor)/(unstimulated). Also, cells with an apoptotic phenotype were excluded from the signaling analysis by gating.

GM-CSF_pSTAT5 [5] = experiment: cells; conditions: read-out: GM-CSF_pSTAT5 inhibition IC50
GM-CSF_pSTAT5 [6] = conditions: 1000 nM
[7] = test system: tumour xenografts that have abnormal PI3K signalling; conditions: loss of PTEN function or gain-of-function PI3K mutations; cited from earlier work
[8] = test system: pAKT and pS6 on H460 cell line; conditions: cited from earlier work
[9] = test system: PMA induced pERK in lymphocytes from PBMCs; experiment: PMA induced pERK in lymphocytes from PBMCs; format: cell-based
[10] = test system: pERK in blood lymphocytes; conditions: ~1000 ng/ml plasma conc.; cited from earlier work
[11] = test system: AML patient myeloid cells; experiment: SCNP arm #2: cytotoxic and cytostatic impact of drugs on AML patient cells; format: cell-based, human; conditions: 48 hours drug culture
From the text: as §1
Arm #2 asessed the cytotoxic and cytostatic impact of various drugs as single agents and in combinations (including the specific kinase inhibitors tested in arm #1). Here the cells from each donor were cultured in the presence of TPO, IL-3, SCF, and FLT3L for 2 days to drive proliferation. After 2 days the cells were then distributed into wells containing various drugs, wherein the cells were cultured for 48 hours. The cultures were fixed, permeabilized, and stained with a cocktail of antibodies to measure complete cell death, apoptosis, S/G2 phase, M-Phase, and DNA damage. These readouts were also obstained from samples cultured separately with individual growth factors (no drugs) for four days.

[12] = test system: normal PBMC (lymphoid and myeloid cells); experiment: DNA damage response kinetics in normal PBMC; format: cell-based, human
mantle cell line (Jeko) = conditions: 10 nM in vitro; cited from earlier work
p-S6 = conditions: 10 nM in vitro; cited from earlier work
[13] = test system: anti-IgM_pAKT induced PBMC; experiment: anti-IgM induced pAKT in PBMC; format: cell-based
[14] = Plasma pharmacokinetics in patients or volunteers (values collected in Table 1); conditions: human, in vivo
[15] = test system: tumor FDG avidity, CA-125; conditions: cited from earlier work
[16] = test system: pAKT levels assayed in PRP; conditions: patients treated at 80 mg and higher; cited from earlier work
PC3 = conditions: read-out: inhibition of PC3 cancer cell proliferation (IC50); cited from earlier work
MDA-MB-361 = conditions: read-out: inhibition of MDA-MB-361 cancer cell proliferation (IC50); cited from earlier work
A2780 = conditions: cited from earlier work
[17] = test system: pS6 in paired tumor biopsies; conditions: patients treated at 80 mg and higher; cited from earlier work
[18] = human, in vivo; cited from earlier work
proteome activity = conditions: 10 nM; cited from earlier work
AML cell lines = conditions: read-out: IC90, proliferation of AML cell lines; cited from earlier work

Nc1ncn([C@@H]2O[C@H](CO)[C@@H](O)[C@H]2O)c(=O)n1 [Azacitidine]
Cmax ([1]; human, in vivo): 1.42 to 4.72 µM

CC(C)(C)c1cc(NC(=O)Nc2ccc(-c3cn4c(n3)sc3cc(OCCN5CCOCC5)ccc34)cc2)no1 [AC220]
effect in xenograft model (xenograft model): tumor regression in a xenograft model at low doses. Ref:
half-life ([1]; human, in vivo): AC220 half-life can be 2.5 days, exhibiting minimal peak and

N#CCNC(=O)c1ccc(-c2ccnc(Nc3ccc(N4CCOCC4)cc3)n2)cc1 [CYT387]
IC50 [2]: 1420 nM
IC50 [3]: 129 nM
IC90 [3]: ~1000 nM

C[C@@H]1CCN(C(=O)CC#N)C[C@@H]1N(C)c1ncnc2[nH]ccc12 [CP690550]
T½ ([1]; human, in vivo, 30 mg): 2.6 h
effect on high basal level of p-STAT5 signaling [4]: inhibited
inhibition of IL-3 signaling [4]: complete inhibition
inhibition of TPO signaling [4]: partial inhibition

N#CC[C@H](C1CCCC1)n1cc(-c2ncnc3[nH]ccc23)cn1 [INCB018424]
IC50 (GM-CSF_pSTAT5 [5]): 215 nM
Cmax ([1]; 100 mg 24 h): 4.78 µM
inhibition of GM-CSF_pSTAT5 (GM-CSF_pSTAT5 [6]): Jan 2011.) 1000 nM can completely inhibit GM-CSF_pSTAT5

Cn1c(=O)n(-c2ccc(C(C)(C)C#N)cc2)c2c3cc(-c4cnc5ccccc5c4)ccc3ncc21 [BEZ235]
activity against tumour xenografts [7]: show that BEZ235 has strong anti-proliferative activity against
inhibition of SCF induced p-AKT [4]: complete inhibition
inhibition of SCF induced p-S6 [4]: partial inhibition
IC50 ([8]; read-out: pAKT 1050): 10 nM
IC50 ([8]; read-out: pS6 1050): 50 nM

Cn1cnc2c(F)c(Nc3ccc(Br)cc3Cl)c(C(=O)NOCCO)cc21 [AZD6244]
inhibition at 1 µM ([9]; 1 μM in vitro, read-out: PMA induced pERK inhibited): 85 to 95%
IC50 ([9]; lymphocytes from PBMCs): ~100 nM
inhibition of SCF induced p-AKT [4]: no inhibition
inhibition of SCF induced p-S6 [4]: partial inhibition
inhibition of SCF-PERK [4]: complete inhibition
pERK inhibition (PD effect) [10]: 11u-post dose. PD effects of ~80% pERK inhibition can be seen at

Nc1ccn([C@@H]2O[C@H](CO)[C@@H](O)[C@@H]2O)c(=O)n1 [AraC, Cytarabine]
drug induced apoptosis / cell death of patient myeloid cells [11]: resisted apoptosis

gemtuzumab ozogamicin [Mylotarg]
kinetics in Myeloid versus Lymphoid cells [12]: faster kinetics in Myeloid compared to Lymphoid cells
time by which induction of p-ATM, p-Chk2 is seen ([12]; Myeloid cells): ≤ 2 h

CO[C@H]1C[C@@H]2CC[C@@H](C)[C@@](O)(O2)C(=O)C(=O)N2CCCC[C@H]2C(=O)O[C@H]([C@H](C)C[C@@H]2CC[C@@H](OCCO)[C@H](OC)C2)CC(=O)[C@H](C)/C=C(\C)[C@@H](O)[C@@H](OC)C(=O)[C@H](C)C[C@H](C)/C=C/C=C/C=C/1C [Everolimus]
Cmax ([1]; 10 mg/d): 61 ng/m1 and 63 nM
trough ([1]; 10 mg/d): 17 ng/m1 and 17.7 nM
trough ([1]; 50 mg/wk): lng/ml (~1 nM). [J Clin Oncol 26: 1603-1610. 2008]. A 10 nM dose
effect on proliferation of mantle cell line (Jeko) (mantle cell line (Jeko)): inhibit proliferation
inhibition of p-S6 (p-S6): inhibit p-S6 completely

Nc1ncn([C@H]2C[C@H](O)[C@@H](CO)O2)c(=O)n1 [Decitabine]
Cmax ([1]; 15 mg/m2 IV over 3 hrs, every 8 hrs, for 3 days): 0.3 to 1.6 µM

CC[C@H](Nc1ncnc2[nH]cnc12)c1nc2cccc(F)c2c(=O)n1-c1ccccc1 [CAL-101]
mean volume of distribution ([1]; human, in vivo): 57.7 L
steady-state trough plasma concentrations above the EC50 for the in vitro whole-blood assay ([1]; human, in vivo): concentrations that are >10-fold above the EC50 for the in vitro
t1/2 ([1]; human, in vivo): ~8 h
block of anti-IgM induced pAKT ([13]; 40 nM): blocked ~90%. Ref: Herman, Sarah EM et al. Blood. Jun. 3,
IC50 ([13]; anti-IgM induced pAKT, PBMC, read-out: Nodality IC50): ~10 nM

Cc1ccc(NC(=O)c2ccc(CN3CCN(C)CC3)cc2)cc1Nc1nccc(-c2cccnc2)n1 [Imatinib]
assumed trough [14]: 1000 ng/ml and 2 μM

CS(=O)(=O)N1CCN(Cc2cc3nc(-c4cccc5[nH]ncc45)nc(N4CCOCC4)c3s2)CC1 [GDC-0941]
reductions in mean SUVmax (tumor FDG avidity on PET scan) ([15]; 3 patients treated at ≧100 mg): GDC-0941 with reductions (≧30% in mean SUVmax) in tumor
decrease in CA-125 ([15]; ovarian cancer patient): FDG avidity observed on PET scan and an ~80% decrease in CA-
decreases in pAKT levels assayed in PRP [16]: biopsies in addition to decreases of >90% in pAKT levels assayed
mean Cmax and AUCinf with dose ([1]; human, in vivo): display dose-proportional increases in mean Cmax and AUCinf.
inhibition of SCF induced p-AKT [4]: partial inhibition
inhibition of SCF induced p-S6 [4]: partial inhibition
IC50 (PC3): 280 nM
IC50 (MDA-MB-361): 720 nM
IC50 (A2780): 140 nM
decreases in pS6 staining in paired tumor biopsies [17]: Decreases in pS6 staining of >50% can occur in paired tumor

O=C(c1cc(Cc2n[nH]c(=O)c3ccccc23)ccc1F)N1CCN(C(=O)C2CC2)CC1 [AZD2281, Olaparib]
Cmax (maximum plasma concentration) ([1]; at MTD): ~6000 ng/mL
Cmax ([1]; read-out: Cmax (maximum plasma concentration), at MTD): 13.8 µM

Cn1nnc2c(C(N)=O)ncn2c1=O [Temozolomide]
T½ ([1]; human, in vivo): 1.67 h
plasma concentration (Cmax) corresponding to 200 ng/m2/day ([1]; human, in vivo): 9300 ng/mL
Cmax ([1]; read-out: plasma concentration (Cmax) corresponding to 200 ng/m2/day, human, in vivo): 47.9 µM
Adult MTD [18]: glioblastoma multiforme patients. Adult MTD = 200 ng/m2/day

CCNC(=O)c1noc(-c2cc(C(C)C)c(O)cc2O)c1-c1ccc(CN2CCOCC2)cc1 [NVP-AUY922]
drug induced apoptosis / cell death of patient myeloid cells [11]: effective at inducing apoptosis

CC(C)C[C@H](NC(=O)[C@H](Cc1ccccc1)NC(=O)c1cnccn1)B(O)O [Bortezomib]
effect on proteome activity (proteome activity): blocks proteome activity [BLOOD, 16 DECEMBER 2010
Cmax (prescribing info) ([1]; human, in vivo): 112 ng/m1
Cmax ([1]; read-out: Cmax (prescribing info), human, in vivo): 0.291 µM
IC90 (AML cell lines): 10 to 50 nM
drug induced apoptosis / cell death of patient myeloid cells [11]: effective at inducing apoptosis; also recorded: induced considerable levels of cell death and cytostasis
